In ChEMBL document CHEMBL1127438, “Substituted (S)-phenylpiperidines and rigid congeners as preferential dopamine autoreceptor antagonists: synthesis and structure-activity relationships” (J Med Chem, 1994):

Assays:
Rattus norvegicus [1] = assay: Evaluated biochemically in reserpine-pretreated habituated rats for (100 umol/kg) subcuteneous dose in rat striatum (DOPAacc), Value expressed as counts/30 min; format: functional
Rattus norvegicus [2] = assay: Evaluated for DOPAC level in nonpretreated habituated rats after subcuteneous dose of 100 micro mol/kg in rat striatum; format: functional
Rattus norvegicus [3] = assay: Evaluated biochemically in nonpretreated habituated rats for (100 uM/kg) subcuteneous dose, Value expressed as locomotor activity (LMA); format: functional
Rattus norvegicus [4] = assay: Evaluated biochemically in reserpine-pretreated habituated rats for (100 umol/kg) subcuteneous dose, Value expressed as locomotor activity (LMA); format: functional
D(2) dopamine receptor [5] = target: T1, D(2) dopamine receptor (Rattus norvegicus, UniProt P61169)
T1 sequence (P61169 whole entry): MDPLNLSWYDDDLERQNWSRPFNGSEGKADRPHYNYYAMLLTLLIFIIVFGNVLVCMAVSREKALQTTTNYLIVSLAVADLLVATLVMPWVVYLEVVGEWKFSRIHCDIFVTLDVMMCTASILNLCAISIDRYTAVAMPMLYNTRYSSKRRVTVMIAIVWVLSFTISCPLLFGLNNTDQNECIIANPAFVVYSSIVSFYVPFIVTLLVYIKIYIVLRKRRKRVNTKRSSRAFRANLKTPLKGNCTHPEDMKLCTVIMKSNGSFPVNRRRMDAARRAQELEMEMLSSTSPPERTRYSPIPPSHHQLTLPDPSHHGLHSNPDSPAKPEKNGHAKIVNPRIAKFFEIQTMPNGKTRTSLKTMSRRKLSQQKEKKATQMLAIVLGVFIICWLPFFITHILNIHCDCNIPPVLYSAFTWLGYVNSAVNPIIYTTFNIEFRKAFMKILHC
Description: Affinity against striatal dopamine D2 receptors using [3H]spiperone as radioligand in rats.

D(2) dopamine receptor [6] = target: T2, D(2) dopamine receptor (Homo sapiens, UniProt P14416); assay: biochemical
T2 sequence (P14416 whole entry): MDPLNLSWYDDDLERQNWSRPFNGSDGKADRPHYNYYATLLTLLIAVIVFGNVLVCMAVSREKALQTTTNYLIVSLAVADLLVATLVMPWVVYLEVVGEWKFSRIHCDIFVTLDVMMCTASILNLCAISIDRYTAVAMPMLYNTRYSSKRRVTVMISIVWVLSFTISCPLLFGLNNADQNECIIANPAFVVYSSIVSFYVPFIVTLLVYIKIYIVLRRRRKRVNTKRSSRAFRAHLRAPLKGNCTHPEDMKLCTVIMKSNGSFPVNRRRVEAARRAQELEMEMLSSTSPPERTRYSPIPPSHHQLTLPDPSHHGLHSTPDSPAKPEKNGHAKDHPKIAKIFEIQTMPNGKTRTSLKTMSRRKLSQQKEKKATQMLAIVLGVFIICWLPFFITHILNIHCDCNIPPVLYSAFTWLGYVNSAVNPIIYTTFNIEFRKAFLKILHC
Description: Affinity against recombinant dopamine receptor (DA) D2 expressed in CHO-K1 cells, using [3H]-spiperone as radioligand

D(3) dopamine receptor [7] = target: T3, D(3) dopamine receptor (Homo sapiens, UniProt P35462); assay: Tested for in vitro binding affinity against cloned mammalian dopamine D3 receptor, expressed in CHO-K1 cells, using [3H]spiperone as radioligand; format: cell-based
T3 sequence (P35462 whole entry): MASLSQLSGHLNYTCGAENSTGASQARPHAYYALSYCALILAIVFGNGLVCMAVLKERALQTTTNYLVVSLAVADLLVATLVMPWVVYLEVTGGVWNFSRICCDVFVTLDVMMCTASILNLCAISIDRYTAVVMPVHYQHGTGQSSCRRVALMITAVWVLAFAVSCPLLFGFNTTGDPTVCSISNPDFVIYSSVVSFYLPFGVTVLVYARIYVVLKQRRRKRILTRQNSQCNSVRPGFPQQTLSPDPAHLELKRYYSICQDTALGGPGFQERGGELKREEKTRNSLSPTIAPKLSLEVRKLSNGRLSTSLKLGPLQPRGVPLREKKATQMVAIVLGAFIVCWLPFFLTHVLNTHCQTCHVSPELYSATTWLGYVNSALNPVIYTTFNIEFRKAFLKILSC

D(2) dopamine receptor [8] = target: T2, D(2) dopamine receptor; assay: biochemical; remark: listed apart in the source
Description: In vitro binding affinity against cloned mammalian dopamine D2 autoreceptor, expressed in CHO-K1 cells, using [3H]U-86170 as radioligand

Dopamine receptor = assay: Tested for in vitro binding affinity against cloned mammalian dopamine autoreceptor (DA) receptors expressed in CHO-K1 cells using [3H]U-86170 as radioligand; format: cell-based
D(3) dopamine receptor [9] = target: T3, D(3) dopamine receptor; assay: Tested for in vitro binding affinity against cloned mammalian dopamine autoreceptor (DA) receptors expressed in CHO-K1 cells [3H]-spiperone as radioligand; format: cell-based
D(2) dopamine receptor [10] = target: T1, D(2) dopamine receptor; assay: Tested for affinity against striatal dopamine autoreceptor (DA) D2 receptors using [3H]spiperone as radioligand in rats.
Rattus norvegicus [11] = assay: Evaluated for biochemical levels of DOPAC in nonpretreated habituated rats for subcuteneous dose of 100 micro mol/kg in rat striatum; format: functional
Rattus norvegicus [12] = assay: Evaluated for locomotor activity in nonpretreated habituated rats in 100 umol/kg of subcuteneous dose; format: functional; set-up: unit not given here
Rattus norvegicus [13] = assay: Evaluated for DOPA accumulation (DOPAacc) level in nonhabituated rats after subcuteneous dose (100 uM/kg) in rat striatum; format: functional
Rattus norvegicus [14] = assay: Evaluated biochemically in nonhabituated rats for (100 umol/kg) subcuteneous dose, Value expressed as locomotor activity (LMA); format: functional
Rattus norvegicus [15] = assay: Effect of (60 min after administration of 200 (uM/kg) subcuteneous dose on DA release in brain dialysis model of rat striatum; Values expressed as percent of saline controls; format: functional
Rattus norvegicus [16] = assay: Compound is evaluated biochemically in nonhabituated rats for (100 umol/kg) subcuteneous dose, Value expressed as locomotor activity (LMA); format: functional
Rattus norvegicus [17] = assay: Tested in vivo for its ability to displace DA receptor agonist (Di-Pr-5,6-ADTN) from rat striatal binding sites at 0.25 uM/Kg sc. dose (after subtraction of cerebellum levels); format: functional
Rattus norvegicus [18] = organism: Rattus norvegicus; assay: Tested in vio for concomitant ability to antagonize the locomotor activity of rat induced by Di-Pr-5,6-ADTN, Value expressed as locomotor activity (LMA), % of control; format: functional; set-up: scale not given: the % may be the effect or the level left
Rattus norvegicus [19] = assay: Evaluated for DOPA accumulation in nonhabituated rats at 100 umol/kg of subcuteneous dose in rat striatum; format: functional
Rattus norvegicus [20] = assay: Compound is evaluated for DOPA accumulation in reserpine-pretreated habituated rats at 100 umol/kg of subcuteneous dose in rat striatum; format: functional
Rattus norvegicus [21] = assay: Effect (60 min after administration of 200 (micro mol/kg) subcuteneous dose on DA release in brain dialysis model of rat striatum; format: functional
Rattus norvegicus [22] = assay: Compound is evaluated for locomotor activity in reserpine-pretreated habituated rats at 100 umol/kg of subcuteneous dose; format: functional
Rattus norvegicus [23] = assay: Compound is evaluated for locomotor activity in nonhabituated rats at 100 umol/kg of subcuteneous dose; format: functional
Rattus norvegicus [24] = assay: Evaluated for locomotor activity in nonpretreated habituated rats at 100 umol/kg of subcuteneous dose; format: functional; set-up: unit not given here

Row | SMILES | Ki (D(2) dopamine receptor [6]) | Activity (Rattus norvegicus [2]) | Control (Rattus norvegicus [3]) | Ki (D(2) dopamine receptor [5]) | Ki (D(3) dopamine receptor [7]) | Ki (D(2) dopamine receptor [8]) | also measured
1 | CCCCN1CCC[C@@H](c2cccc(C#N)c2)C1 | > 0.217 µM | 257% | 1382% | 0.617 µM | – | – | Activity (Rattus norvegicus [1]): 71%; Control (Rattus norvegicus [4]): 12%
2 | CCCN1CCC[C@@H](c2cccc(CC#N)c2)C1 | > 0.217 µM | 302% | 887% | 1.23 µM | 0.509 µM | 0.069 µM | Activity (Rattus norvegicus [1]): 57%; Activity (Rattus norvegicus [13]): 207%; Locomotor activity (% of control) (Rattus norvegicus [14]): 147%; Control (Rattus norvegicus [4]): 16%
3 | N#Cc1cccc([C@@H]2CCCN(CC3CC3)C2)c1 | > 0.217 µM | – | – | – | 0.522 µM | 0.519 µM | Locomotor activity (% of control) (Rattus norvegicus [14]): 191%
4 | CCC(C)N1CCC[C@@H](c2cccc(C#N)c2)C1 (stereo partly specified) | 0.098 µM | 267% | 346% | 1.05 µM | 0.105 µM | 0.187 µM | Activity (Rattus norvegicus [15]): 256%; Control (Rattus norvegicus [17]): 59%; Control (Rattus norvegicus [18]): 56%
5 | N#Cc1cccc([C@@H]2CCCNC2)c1 | > 0.217 µM | 167% | 575% | – | 0.631 µM | 0.314 µM | Activity (Rattus norvegicus [13]): 271%; Locomotor activity (% of control) (Rattus norvegicus [14]): 193%
6 | C#CCN1CCC[C@@H](c2cccc(C#N)c2)C1 | > 0.217 µM | 146% | 297% | > 15 µM | > 1.36 µM | 1.18 µM | –
7 | CCCN1CCC[C@@H](c2ccc(OS(=O)(=O)C(F)(F)F)cc2)C1 | > 0.217 µM | – | – | – | – | – | Ki (Dopamine receptor): 1.736 µM; Ki (D(3) dopamine receptor [9]): 1.14 µM; Ki (D(2) dopamine receptor [10]): 11.8 µM; Activity (Rattus norvegicus [19]): 495%; Activity (Rattus norvegicus [11]): 85%
8 | CCCN1CCC[C@@H](c2cccc(Br)c2)C1 | 0.17 µM | – | – | – | – | – | Ki (Dopamine receptor): 0.106 µM; Ki (D(3) dopamine receptor [9]): 0.171 µM; Ki (D(2) dopamine receptor [10]): 0.533 µM; Activity (Rattus norvegicus [19]): 199%; Activity (Rattus norvegicus [20]): 101%; Activity (Rattus norvegicus [11]): 145%; Activity (Rattus norvegicus [21]): 363%; LMA (Rattus norvegicus [22]): 15; LMA (Rattus norvegicus [23]): 140; LMA (Rattus norvegicus [24]): 470
9 | CN1CCC[C@@H](c2cccc(OS(=O)(=O)C(F)(F)F)c2)C1 | > 0.217 µM | – | – | – | – | – | Ki (D(2) dopamine receptor [10]): 11.8 µM
10 | C=CCN1CC[C@H]2c3cccc(OC)c3CC[C@H]21 | – | 314% | 182% | – | – | – | –
11 | C=CCN1CCC2c3cccc(C#N)c3CCC21 (stereo unspecified) | – | 172% | 292% | > 0.172 µM | > 0.455 µM | 0.984 µM | –

More lines, main results first:

Row | Ki (D(2) dopamine receptor [6]) | SMILES | Activity (Rattus norvegicus [2]) | Control (Rattus norvegicus [3]) | Ki (D(2) dopamine receptor [5]) | Ki (D(3) dopamine receptor [7]) | Ki (D(2) dopamine receptor [8]) | also measured
12 | > 0.217 µM | CCCN1CCC[C@@H](c2cccc(C(=O)OC)c2)C1 | 140% | 297% | 2.17 µM | > 1.28 µM | > 1.85 µM | –
13 | > 0.217 µM | C=CCN1CC[C@@H]2c3cccc(OS(=O)(=O)C(F)(F)F)c3CC[C@@H]21 (stereo in doubt; 49) | – | – | – | – | – | Ki (Dopamine receptor): 0.353 µM; Ki (D(3) dopamine receptor [9]): 0.173 µM; Ki (D(2) dopamine receptor [10]): > 0.172 µM; Activity (Rattus norvegicus [11]): 108%; LMA (Rattus norvegicus [12]): 116
14 | > 0.217 µM | C=CCN1CCC2c3cccc(C(N)=O)c3CCC21 (stereo unspecified) | – | – | > 0.172 µM | > 1.5 µM | > 1.5 µM | –
15 | > 0.217 µM | CCCN1CCC[C@@H](c2cccc(CO)c2)C1 | 138% | 187% | 0.41 µM | 1.46 µM | 0.24 µM | Activity (Rattus norvegicus [1]): 50%; Activity (Rattus norvegicus [13]): 118%; Activity (Rattus norvegicus [15]): 175%; Control (Rattus norvegicus [16]): 123%; Control (Rattus norvegicus [4]): 3%
16 | > 0.217 µM | CCCN1CCC2c3cccc(OS(=O)(=O)C(F)(F)F)c3CCC21 (stereo unspecified) | – | – | – | – | – | Ki (Dopamine receptor): 0.089 µM; Ki (D(3) dopamine receptor [9]): 0.061 µM; Ki (D(2) dopamine receptor [10]): 0.082 µM; Activity (Rattus norvegicus [11]): 223%; LMA (Rattus norvegicus [12]): 687
17 | > 0.217 µM | CCCN1CCC[C@@H](c2ccccc2OS(=O)(=O)C(F)(F)F)C1 | – | – | – | – | – | Ki (Dopamine receptor): 0.315 µM; Ki (D(3) dopamine receptor [9]): 3.11 µM; Activity (Rattus norvegicus [19]): 102%; Activity (Rattus norvegicus [11]): 83%
